Reference: PubChem BioAssay AID2060883 (Molecular Pharmacology Branch, DTP, NCI, 2025)
pIC50: −log10 of the molar value.

System: 843782-103-R-J1-PDC complex spheroid viability
Assay: Anticancer human tumor 843782-103-R-J1-PDC patient-derived lung adenocarcinoma cell line growth inhibition [RAS]
Details: for viability, T/C: stronger effect = lower value; active = viability on the fitted dose curve at most 10% of control; inactive = the rest
Procedure, shortened: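 Agents were tested in combination matrices in half-log decrements from a top concentration at or near clinical Cmax (10 microM if undetermined). Targets were multi-cell spheroids of tumour lines plus HUVEC and MSC stromal cells.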

[1] = curve of first compound, second compound 0.0316 µM
[2] = curve of first compound, second compound 0.1 µM
[3] = curve of first compound, second compound 0.316 µM
[4] = curve of first compound, second compound 1 µM
[5] = second compound 0.0316 µM, first compound 0.0316 µM
[6] = second compound 0.0316 µM, first compound 0.1 µM
[7] = second compound 0.0316 µM, first compound 0.316 µM
[8] = second compound 0.0316 µM, first compound 1 µM
[9] = second compound 0.1 µM, first compound 0.0316 µM
[10] = second compound 0.1 µM, first compound 0.1 µM
[11] = second compound 0.1 µM, first compound 0.316 µM
[12] = second compound 0.1 µM, first compound 1 µM
[13] = second compound 0.316 µM, first compound 0.0316 µM
[14] = second compound 0.316 µM, first compound 0.1 µM
[15] = second compound 0.316 µM, first compound 0.316 µM
[16] = second compound 0.316 µM, first compound 1 µM
[17] = second compound 1 µM, first compound 0.0316 µM
[18] = second compound 1 µM, first compound 0.1 µM
[19] = second compound 1 µM, first compound 0.316 µM
[20] = second compound 1 µM, first compound 1 µM
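Note: viability read after seven days of compound exposure.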

Nc1ccn(C2OC(CO)C(O)C2(F)F)c(=O)n1 (stereo not drawn) + C=CC(=O)N1CCN(c2nc(OCC3CCCN3C)nc3c(F)c(-c4nc(N)cc(C)c4C(F)(F)F)c(Cl)cc23)C(C)C1
7.66: pIC50 [2]
7.60: pIC50 [1]
7.64: pIC50 [3]
inactive: viability, T/C (second compound 0.00316 µM, first compound 0.00316 µM) 89.9% | viability, T/C (second compound 0.00316 µM, first compound 0.01 µM) 89.7% | viability, T/C (second compound 0.00316 µM, first compound 0.0316 µM) 36.7% | viability, T/C (second compound 0.01 µM, first compound 0.00316 µM) 90.6% | viability, T/C (second compound 0.01 µM, first compound 0.01 µM) 87.7% | viability, T/C (second compound 0.01 µM, first compound 0.0316 µM) 53.7% | viability, T/C (second compound 0.0316 µM, first compound 0.00316 µM) 88.7% | viability, T/C (second compound 0.0316 µM, first compound 0.01 µM) 86.3% | viability, T/C [5] 41.4% | viability, T/C (second compound 0.1 µM, first compound 0.00316 µM) 96.5% | viability, T/C (second compound 0.1 µM, first compound 0.01 µM) 82.5% | viability, T/C [9] 34.6% | viability, T/C (second compound 0.316 µM, first compound 0.00316 µM) 89.9% | viability, T/C (second compound 0.316 µM, first compound 0.01 µM) 82.8% | viability, T/C [13] 37.8% | viability, T/C (second compound 1 µM, first compound 0.00316 µM) 93% | viability, T/C (second compound 1 µM, first compound 0.01 µM) 80% | viability, T/C [17] 30.3%
7.70: pIC50 [4]
7.63: pIC50 (curve of first compound, second compound 0.00316 µM)
active: viability, T/C (second compound 0.00316 µM, first compound 0.1 µM) 3.04% | viability, T/C (second compound 0.00316 µM, first compound 0.316 µM) 1.74% | viability, T/C (second compound 0.00316 µM, first compound 1 µM) 2.04% | viability, T/C (second compound 0.01 µM, first compound 0.1 µM) 3.4% | viability, T/C (second compound 0.01 µM, first compound 0.316 µM) 1.89% | viability, T/C (second compound 0.01 µM, first compound 1 µM) 1.3% | viability, T/C [6] 4.87% | viability, T/C [7] 1.41% | viability, T/C [8] 1.39% | viability, T/C [10] 2.56% | viability, T/C [11] 1.84% | viability, T/C [12] 1.83% | viability, T/C [14] 4.66% | viability, T/C [15] 1.55% | viability, T/C [16] 1.83% | viability, T/C [18] 4.7% | viability, T/C [19] 1.55% | viability, T/C [20] 1.67%
7.46: pIC50 (curve of first compound, second compound 0.01 µM)

CC(=O)OC12COC1CC(O)C1(C)C(=O)C(O)C3=C(C)C(OC(=O)C(O)C(NC(=O)OC(C)(C)C)c4ccccc4)CC(O)(C(OC(=O)c4ccccc4)C21)C3(C)C (stereo not drawn)
active: viability, T/C (compound 0.0316 µM) 3.82% [middle of 4 runs] | viability, T/C (compound 0.1 µM) 4.87% [middle of 4 runs] | viability, T/C (compound 0.316 µM) 5.01% [middle of 4 runs] | viability, T/C (compound 1 µM) 4.69% [middle of 4 runs] | viability, T/C (compound 3.16 µM) 6.26% [middle of 4 runs] | viability, T/C (compound 10 µM) 8.18% [middle of 4 runs]
> 7.50: pIC50 (curve of compound)

CC(=O)OC12COC1CC(O)C1(C)C(=O)C(O)C3=C(C)C(OC(=O)C(O)C(NC(=O)OC(C)(C)C)c4ccccc4)CC(O)(C(OC(=O)c4ccccc4)C21)C3(C)C (stereo not drawn) + C#Cc1c(F)ccc2cc(O)cc(-c3ncc4c(N5CC6CCC(C5)N6)nc(OCC56CCCN5CC(F)C6)nc4c3F)c12
active: viability, T/C [5] 4.52% | viability, T/C [6] 3.3% | viability, T/C [7] 5.75% | viability, T/C [8] 5.44% | viability, T/C (second compound 0.0316 µM, first compound 3.16 µM) 6.53% | viability, T/C (second compound 0.0316 µM, first compound 10 µM) 7.38% | viability, T/C [9] 5.17% | viability, T/C [10] 4.75% | viability, T/C [11] 5.48% | viability, T/C [12] 5.75% | viability, T/C (second compound 0.1 µM, first compound 3.16 µM) 5.28% | viability, T/C (second compound 0.1 µM, first compound 10 µM) 6.18% | viability, T/C [13] 5.18% | viability, T/C [14] 5.95% | viability, T/C [15] 5.15% | viability, T/C [16] 5.27% | viability, T/C (second compound 0.316 µM, first compound 3.16 µM) 4.44% | viability, T/C (second compound 0.316 µM, first compound 10 µM) 8.29% | viability, T/C [17] 4.8% | viability, T/C [18] 6.07% | viability, T/C [19] 7.89% | viability, T/C [20] 6.08% | viability, T/C (second compound 1 µM, first compound 3.16 µM) 5.69% | viability, T/C (second compound 1 µM, first compound 10 µM) 8.43% | viability, T/C (second compound 3.16 µM, first compound 0.0316 µM) 5.43% | viability, T/C (second compound 3.16 µM, first compound 0.1 µM) 5.83% | viability, T/C (second compound 3.16 µM, first compound 0.316 µM) 5.33% | viability, T/C (second compound 3.16 µM, first compound 1 µM) 4.35% | viability, T/C (second compound 3.16 µM, first compound 3.16 µM) 6.83% | viability, T/C (second compound 3.16 µM, first compound 10 µM) 8.8% | viability, T/C (second compound 10 µM, first compound 0.0316 µM) 5.06% | viability, T/C (second compound 10 µM, first compound 0.1 µM) 3.91% | viability, T/C (second compound 10 µM, first compound 0.316 µM) 6.9% | viability, T/C (second compound 10 µM, first compound 1 µM) 4.34% | viability, T/C (second compound 10 µM, first compound 3.16 µM) 3.89% | viability, T/C (second compound 10 µM, first compound 10 µM) 7.89%
> 7.50: pIC50 [1] | pIC50 [2] | pIC50 [3] | pIC50 [4] | pIC50 (curve of first compound, second compound 3.16 µM) | pIC50 (curve of first compound, second compound 10 µM)

Cc1nc(N2CCC3(CC2)COC(C)C3N)c(CO)nc1Sc1ccnc(N)c1Cl (stereo not drawn) + CCn1c(-c2cc(N3CCN(C)CC3)cnc2C(C)OC)c2c3cc(ccc31)-c1csc(n1)CC(NC(=O)C1CC1C)C(=O)N1CCCC(N1)C(=O)OCC(C)(C)C2
inactive: viability, T/C (second compound 0.000949 µM, first compound 0.0316 µM) 54.4% | viability, T/C (second compound 0.000949 µM, first compound 0.1 µM) 42% | viability, T/C (second compound 0.000949 µM, first compound 0.316 µM) 40.2% | viability, T/C (second compound 0.000949 µM, first compound 1 µM) 23.5% | viability, T/C (second compound 0.000949 µM, first compound 3.16 µM) 19.4% | viability, T/C (second compound 0.000949 µM, first compound 10 µM) 19.2% | viability, T/C (second compound 0.003 µM, first compound 0.0316 µM) 50% | viability, T/C (second compound 0.003 µM, first compound 0.1 µM) 39.2% | viability, T/C (second compound 0.003 µM, first compound 0.316 µM) 29.5% | viability, T/C (second compound 0.003 µM, first compound 1 µM) 22.1% | viability, T/C (second compound 0.003 µM, first compound 3.16 µM) 19.4% | viability, T/C (second compound 0.003 µM, first compound 10 µM) 13.4% | viability, T/C (second compound 0.00949 µM, first compound 0.0316 µM) 26.4% | viability, T/C (second compound 0.00949 µM, first compound 0.1 µM) 25.6% | viability, T/C (second compound 0.00949 µM, first compound 0.316 µM) 20% | viability, T/C (second compound 0.00949 µM, first compound 1 µM) 19.6% | viability, T/C (second compound 0.00949 µM, first compound 3.16 µM) 15.9% | viability, T/C (second compound 0.00949 µM, first compound 10 µM) 15.1% | viability, T/C (second compound 0.03 µM, first compound 0.0316 µM) 18.6% | viability, T/C (second compound 0.03 µM, first compound 0.1 µM) 17.8% | viability, T/C (second compound 0.03 µM, first compound 0.316 µM) 16.4% | viability, T/C (second compound 0.03 µM, first compound 1 µM) 15.5% | viability, T/C (second compound 0.03 µM, first compound 3.16 µM) 15.5% | viability, T/C (second compound 0.03 µM, first compound 10 µM) 14.1% | viability, T/C (second compound 0.0949 µM, first compound 0.0316 µM) 17.4% | viability, T/C (second compound 0.0949 µM, first compound 0.1 µM) 13.6% | viability, T/C (second compound 0.0949 µM, first compound 0.316 µM) 13.3% | viability, T/C (second compound 0.0949 µM, first compound 1 µM) 13% | viability, T/C (second compound 0.0949 µM, first compound 3.16 µM) 13.5% | viability, T/C (second compound 0.0949 µM, first compound 10 µM) 12.2% | viability, T/C (second compound 0.3 µM, first compound 0.0316 µM) 13.7% | viability, T/C (second compound 0.3 µM, first compound 0.1 µM) 15.5% | viability, T/C (second compound 0.3 µM, first compound 0.316 µM) 15.1% | viability, T/C (second compound 0.3 µM, first compound 1 µM) 15.4% | viability, T/C (second compound 0.3 µM, first compound 3.16 µM) 14% | viability, T/C (second compound 0.3 µM, first compound 10 µM) 12.4%
7.29: pIC50 (curve of first compound, second compound 0.000949 µM)
7.50: pIC50 (curve of first compound, second compound 0.003 µM)
> 7.50: pIC50 (curve of first compound, second compound 0.00949 µM) | pIC50 (curve of first compound, second compound 0.03 µM) | pIC50 (curve of first compound, second compound 0.0949 µM) | pIC50 (curve of first compound, second compound 0.3 µM)
